From patent publication US7105562B2, “Geometrically restricted 3-cyclopentylidene-1,3-dihydroindol-2-ones as potent protein tyrosine kinase inhibitors” (Sugen, Inc., priority 2003, dated 2006)

Each compound was assayed against FGFR1 (Homo sapiens, UniProt P11362) (assay: FGFR1 Bioassay (in vitro kinase activity, ELISA)). Details: purified GST-FGFR1, poly(Glu-Tyr) substrate, read-out: FGFR IC50.
Format: biochemical
Method: This assay is used to measure the in vitro kinase activity of FGF1-R in an ELISA assay.
1. Costar 96-well ELISA plates (Corning Catalog # 3369).
2. Poly(Glu-Tyr) (Sigma Catalog # P0275).
4. 50 mM Hepes Buffer Solution.
5. Blocking Buffer (5% BSA/PBS).
6. Purified GST-FGFR1 (SUGEN, Inc.)
7. Kinase Dilution Buffer.
Mix 500 μl 1M Hepes (GIBCO), 20 μl 5% BSA/PBS, 10 μl 100 mM sodium orthovanadate and 50 μl 5M NaCl.
9. ATP/MnCl2 phosphorylation mix: mix 20 μL ATP, 400 μL 1 M MnCl2 and 9.56 ml dH2O.
10. NUNC 96-well V bottom polypropylene plates (Applied Scientific Catalog # AS-72092).
Add 500 μL TWEEN to 1 liter TBS.
13. Rabbit polyclonal anti-phosphotyrosine serum (SUGEN, Inc.).
14. Goat anti-rabbit IgG peroxidase conjugate (Biosource, Catalog # ALI0404).
1. Coat Costar 96 well ELISA plates with 1 μg per well Poly(Glu-Tyr) in 100 μl PBS. Store overnight at 4° C.
2. Wash coated plates once with PBS.
3. Add 150 μL of 5% BSA/PBS Blocking Buffer to each well. Incubate, with shaking, for 1 hr at room temperature.
4. Wash plate 2× with PBS, then once with 50 mM Hepes. Pat plates on a paper towel to remove excess liquid and bubbles.
5. Add 25 μL of 0.4 mM test compound in 4% DMSO or 4% DMSO alone (controls) to plate.
6. Dilute purified GST-FGFR1 in Kinase Dilution Buffer (5 ng kinase/50 ul KDB/well).
7. Add 50 μL of diluted kinase to each well.
8. Start kinase reaction by adding 25 μl/well of freshly prepared ATP/Mn++ (0.4 ml 1M MnCl2, 40 μL 10 mM ATP, 9.56 ml dH2O), freshly prepared).
9. Stop reaction with 25 μL of 0.5M EDTA.
10. Wash plate 4× with fresh TBST.
11. Make up Antibody Dilution Buffer: For 50 ml, mix 5 ml of 5% BSA, 250 μl of 5% milk and 50 μl of 100 mM sodium vanadate, bring to final volume with 0.05% TBST.
12. Add 100 μl per well of anti-phosphotyrosine (1:10000 dilution in ADB). Incubate, with shaking for 1 hr. at room temperature.
14. Add 100 μl per well of Biosource Goat anti-rabbit IgG peroxidase conjugate (1:6000 dilution in ADB). Incubate, with shaking for 1 hr. at room temperature.
15. Wash as in step 10 and then with PBS to remove bubbles and excess TWEEN.
16. Add 100 μl of ABTS/H2O2 solution to each well.
17. Incubate, with shaking, for 10 to 20 minutes. Remove any bubbles.
18. Read assay on Dynatech MR7000 ELISA reader: test filter at 410 nM, reference filter at 630 nM.

Chain of FGFR1 (P11362 22-822, species assumed): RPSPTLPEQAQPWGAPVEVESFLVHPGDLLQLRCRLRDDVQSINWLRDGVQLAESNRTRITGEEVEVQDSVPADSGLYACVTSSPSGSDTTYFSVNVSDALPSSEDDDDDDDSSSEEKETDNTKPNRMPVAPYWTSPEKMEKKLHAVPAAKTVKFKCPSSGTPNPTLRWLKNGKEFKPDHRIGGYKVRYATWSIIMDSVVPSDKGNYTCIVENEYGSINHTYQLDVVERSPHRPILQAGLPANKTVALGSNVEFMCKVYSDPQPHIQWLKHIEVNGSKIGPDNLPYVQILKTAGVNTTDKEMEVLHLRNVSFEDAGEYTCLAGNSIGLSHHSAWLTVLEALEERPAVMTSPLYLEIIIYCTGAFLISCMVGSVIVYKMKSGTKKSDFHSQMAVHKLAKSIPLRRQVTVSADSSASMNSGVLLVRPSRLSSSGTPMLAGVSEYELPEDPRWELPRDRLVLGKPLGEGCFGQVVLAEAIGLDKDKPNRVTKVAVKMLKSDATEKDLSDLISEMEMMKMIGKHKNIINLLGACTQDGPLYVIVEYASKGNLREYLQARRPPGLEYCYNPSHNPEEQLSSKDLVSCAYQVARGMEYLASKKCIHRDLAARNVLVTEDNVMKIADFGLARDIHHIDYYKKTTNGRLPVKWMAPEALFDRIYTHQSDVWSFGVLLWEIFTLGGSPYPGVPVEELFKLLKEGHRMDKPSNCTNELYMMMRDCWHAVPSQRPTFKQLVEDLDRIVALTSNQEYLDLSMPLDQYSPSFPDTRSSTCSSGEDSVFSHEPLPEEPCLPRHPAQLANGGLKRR

Compound | IC50 [nM]
CNS(=O)(=O)c1ccc2c(c1)/C(=C1\CCc3c1[nH]c(C)c3C(=O)N1CCCC1CN1CCCC1)C(=O)N2 (stereo in doubt) [Example 13, 3-[2-Methyl-3-((R)-2-pyrrolidin-1-ylmethyl-pyrrolidine-1-carbonyl)-4,5-dihydro-1H-cyclopenta[b]pyrrol-(6Z)-ylidene]-2-oxo-2,3-dihydro-1H-indole-5-sulfonic acid methylamide] | 15
CCOC(=O)c1c(C)[nH]c2c1CC/C2=C1/C(=O)Nc2ccccc21 [Example 1, 2-Methyl-6-[2-oxo-1,2-dihydro-indol-(3Z)-ylidene]-1,4,5,6-tetrahydro-cyclopenta[b]pyrrole-3-carboxylic acid ethyl ester] | 79
CCOC(=O)c1c(C)[nH]c2c1CC/C2=C1/C(=O)Nc2ccc(S(=O)(=O)Cc3c(Cl)cccc3Cl)cc21 [Example 2, 6-[5-(2,6-Dichloro-phenylmethanesulfonyl)-2-oxo-1,2-dihydro-indol-(3Z)-ylidene]-2-methyl-1,4,5,6-tetrahydro-cyclopenta[b]pyrrole-3-carboxylic acid ethyl ester] | 2500
CCOC(=O)c1c(C)[nH]c2c1CC/C2=C1/C(=O)Nc2ccc(S(=O)(=O)NC)cc21 [Example 3, 2-Methyl-6-[5-methylsulfamoyl-2-oxo-1,2-dihydro-indol-(3Z)-ylidene]-1,4,5,6-tetrahydro-cyclopenta[b]pyrrole-3-carboxylic acid ethyl ester] | 600
CNS(=O)(=O)c1ccc2c(c1)/C(=C1\CCc3cc(C)[nH]c31)C(=O)N2 [Example 4, 3-[2-Methyl-4,5-dihydro-1H-cyclopenta[b]pyrrol-(6Z)-ylidene]-2-oxo-2,3-dihydro-1H-indole-5-sulfonic acid methylamide] | 25
CNS(=O)(=O)c1ccc2c(c1)/C(=C1\CCc3c1[nH]c(C)c3C(=O)O)C(=O)N2 [Example 5, 2-Methyl-6-[5-methylsulfamoyl-2-oxo-1,2-dihydro-indol-(3Z)-ylidene]-1,4,5,6-tetrahydro-cyclopenta[b]pyrrole-3-carboxylic acid] | 22
CCOC(=O)c1c(C)[nH]c2c1CC/C2=C1/C(=O)Nc2ccc(S(C)(=O)=O)cc21 [Example 6, 6-[5-Methanesulfonyl-2-oxo-1,2-dihydro-indol-(3Z)-ylidene]-2-methyl-1,4,5,6-tetrahydro-cyclopenta[b]pyrrole-3-carboxylic acid ethyl ester] | 14500
CCOC(=O)c1c(C)[nH]c2c1CC/C2=C1/C(=O)Nc2ccc(S(=O)(=O)N(C)C)cc21 [Example 7, 6-[5-Dimethylsulfamoyl-2-oxo-1,2-dihydro-indol-(3Z)-ylidene]-2-methyl-1,4,5,6-tetrahydro-cyclopenta[b]pyrrole-3-carboxylic acid ethyl ester] | > 20000
CCOC(=O)c1c(C)[nH]c2c1CC/C2=C1/C(=O)Nc2ccc(S(=O)(=O)NC(C)C)cc21 [Example 8, 6-[5-Isopropylsulfamoyl-2-oxo-1,2-dihydro-indol-(3Z)-ylidene]-2-methyl-1,4,5,6-tetrahydro-cyclopenta[b] pyrrole-3-carboxylic acid ethyl ester] | > 20000
CCOC(=O)c1c(C)[nH]c2c1CC/C2=C1/C(=O)Nc2ccc(S(=O)(=O)CC)cc21 [Example 9, 6-[5-Ethanesulfonyl-2-oxo-1,2-dihydro-indol-(3Z)-ylidene]-2-methyl-1,4,5,6-tetrahydro-cyclopenta[b]pyrrole-3-carboxylic acid ethyl ester] | 530
CNS(=O)(=O)c1ccc2c(c1)/C(=C1\CCc3c1[nH]c(C)c3C(=O)NCC(O)CN1CCCC1)C(=O)N2 (centres unmarked) [Example 10, 2-Methyl-6-[5-methylsulfamoyl-2-oxo-1,2-dihydro-indol-(3Z)-ylidene]-1,4,5,6-tetrahydro-cyclopenta[b]pyrrole-3-carboxylic acid (2-hydroxy-3-pyrrolidin-1-yl-propyl)-amide] | < 18
CNS(=O)(=O)c1ccc2c(c1)/C(=C1\CCc3c1[nH]c(C)c3C(=O)NCC(O)CNC1CC1)C(=O)N2 (centres unmarked) [Example 11, 2-Methyl-6-[5-methylsulfamoyl-2-oxo-1,2-dihydro-indol-(3Z)-ylidene]-1,4,5,6-tetrahydro-cyclopenta[b]pyrrole-3-carboxylic acid (3-cyclopropylamino-2-hydroxy-propyl)-amide] | 20
CNS(=O)(=O)c1ccc2c(c1)/C(=C1\CCc3c1[nH]c(C)c3C(=O)NCCN(C)C)C(=O)N2 [Example 12, 2-Methyl-6-[5-methylsulfamoyl-2-oxo-1,2-dihydro-indol-(3Z)-ylidene]-1,4,5,6-tetrahydro-cyclopenta[b]pyrrole-3-carboxylic acid (2-dimethylamino-ethyl)-amide] | 17
CCOC(=O)c1c(C)[nH]c2c1CC/C2=C1/C(=O)Nc2ccc(S(N)(=O)=O)cc21 [Example 14, 2-Methyl-6-[2-oxo-5-sulfamoyl-1,2-dihydro-indol-(3Z)-ylidene]-1,4,5,6-tetrahydro-cyclopenta[b]pyrrole-3-carboxylic acid ethyl ester] | 100
CNS(=O)(=O)c1ccc2c(c1)C(=C1CCCC1)C(=O)N2 [Example 15, 3-Cyclopentylidene-2-oxo-2,3-dihydro-1H-indole-5-sulfonic acid methylamide] | > 20000
CNS(=O)(=O)c1ccc2c(c1)/C(=C1\CCc3c1[nH]c(C)c3S(C)(=O)=O)C(=O)N2 [Example 16, 3-[3-Methanesulfonyl-2-methyl-4,5-dihydro-1H-cyclopenta[b]pyrrol-(6Z)-ylidene]-2-oxo-2,3-dihydro-1H-indole-5-sulfonic acid methylamide] | 15
CNS(=O)(=O)c1ccc2c(c1)/C(=C1\CC(CC(=O)O)c3cc(OC)ccc31)C(=O)N2 (centres unmarked) [Example 17, {6-Methoxy-3-[5-methylsulfamoyl-2-oxo-1,2-dihydro-indol-(3Z)-ylidene]-indan-1-yl}-acetic acid] | 40
Cc1[nH]c2c(c1C(=O)N1CCC[C@H]1CN1CCCC1)CC/C2=C1/C(=O)Nc2ccc(F)cc21 [Example 18, 5-Fluoro-3-[2-methyl-3-((S)-2-pyrrolidin-1-ylmethyl-pyrrolidine-1-carbonyl)-4,5-dihydro-1H-cyclopenta[b]pyrrol-(6Z)-ylidene]-1,3-dihydro-indol-2-one] | 80
COc1ccc2c(c1)NC(=O)/C2=C1/CCc2c1[nH]c(C)c2C(=O)N1CCC[C@H]1CN1CCCC1 [Example 19, 6-Methoxy-3-[2-methyl-3-((S)-2-pyrrolidin-1-ylmethyl-pyrrolidine-1-carbonyl)-4,5-dihydro-1H-cyclopenta[b]pyrrol-(6Z)-ylidene]-1,3-dihydro-indol-2-one] | 210
COc1ccccc1-c1ccc2c(c1)NC(=O)/C2=C1/CCc2c1[nH]c(C)c2C(=O)N1CCC[C@H]1CN1CCCC1 [Example 20] | 480
Cc1[nH]c2c(c1C(=O)N1CCC[C@H]1CN1CCCC1)CC/C2=C1/C(=O)Nc2c(Cl)cccc21 [Example 21, 7-Chloro-3-[2-methyl-3-((S)-2-pyrrolidin-1-ylmethyl-pyrrolidine-1-carbonyl)-4,5-dihydro-1H-cyclopenta[b]pyrrol-(6Z)-ylidene]-1,3-dihydro-indol-2-one] | 1900
Cc1[nH]c2c(c1C(=O)N1CCC[C@H]1CN1CCCC1)CC/C2=C1/C(=O)Nc2ncccc21 [Example 22, 3-[2-Methyl-3-((S)-2-pyrrolidin-1-ylmethyl-pyrrolidine-1-carbonyl)-4,5-dihydro-1H-cyclopenta[b]pyrrol-(6Z)-ylidene]-1,3-dihydro-pyrrolo[2,3-b]pyridin-2-one] | 2070
COc1ccc(-c2ccc3c(c2)NC(=O)/C3=C2/CCc3c2[nH]c(C)c3C(=O)N2CCC[C@H]2CN2CCCC2)cc1 [Example 23, 6-(4-Methoxy-phenyl)-3-[2-methyl-3-((S)-2-pyrrolidin-1-ylmethyl-pyrrolidine-1-carbonyl)-4,5-dihydro-1H-cyclopenta[b]pyrrol-(6Z)-ylidene]-1,3-dihydro-indol-2-one] | 230
